# Data published in US8710065B2, “Tricyclic inhibitors of kinases” (AbbVie Inc., priority 2011, dated 2014).
# Target: T1, GST-tagged-Wee1 kinase (Homo sapiens, UniProt P30291)
# T1 construct: purchased Carnabio (Carna Biosciences) 05-177
# Assay: Wee1 time-resolved fluorescence equilibrium binding assay (displacement of Oregon Green-labeled ATP-competitive kinase probe)
# Settings: read-out: Wee-1 inhibition (Ki)
# In short: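 Time-resolved fluorescence equilibrium binding with GST-Wee1, measuring displacement of a rapidly reversible Oregon Green-labelled ATP-competitive probe by competitive inhibitors; values reported as Ki.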
# T1 sequence (P30291 whole entry): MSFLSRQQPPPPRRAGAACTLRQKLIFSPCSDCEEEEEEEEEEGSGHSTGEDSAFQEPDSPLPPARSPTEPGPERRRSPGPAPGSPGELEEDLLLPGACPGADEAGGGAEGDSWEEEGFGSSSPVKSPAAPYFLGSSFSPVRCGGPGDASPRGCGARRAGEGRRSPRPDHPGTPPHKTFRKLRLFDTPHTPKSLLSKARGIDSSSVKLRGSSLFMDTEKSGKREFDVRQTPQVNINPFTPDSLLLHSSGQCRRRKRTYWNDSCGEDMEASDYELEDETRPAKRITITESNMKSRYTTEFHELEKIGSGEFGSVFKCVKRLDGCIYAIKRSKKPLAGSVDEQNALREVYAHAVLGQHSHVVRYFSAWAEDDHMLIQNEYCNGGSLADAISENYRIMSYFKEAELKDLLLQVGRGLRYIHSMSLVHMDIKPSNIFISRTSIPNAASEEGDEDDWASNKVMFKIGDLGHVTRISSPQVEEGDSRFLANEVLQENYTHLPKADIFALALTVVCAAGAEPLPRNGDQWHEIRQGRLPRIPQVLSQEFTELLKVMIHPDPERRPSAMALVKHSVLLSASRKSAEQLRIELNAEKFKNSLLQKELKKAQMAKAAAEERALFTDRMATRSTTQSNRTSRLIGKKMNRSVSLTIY
row,Ki [nM],SMILES
1,< 10,"CN1CCN(c2ccc(Nc3ncc4c(=O)n(-c5c(Cl)cc(F)cc5Cl)c5nccn5c4n3)cc2)CC1 [Example 123, 6-(2,6-dichloro-4-fluorophenyl)-2-{[4-(4-methylpiperazin-1-yl)phenyl]amino}imidazo[1,2-a]pyrimido[5,4-e]pyrimidin-5(6H)-one]"
2,< 10,"CN1CCN(Cc2ccc(Nc3ncc4c(=O)n(-c5c(Cl)cccc5Cl)c5nccn5c4n3)cc2)CC1 [Example 127, 6-(2,6-dichlorophenyl)-2-({4-[(4-methylpiperazin-1-yl)methyl]phenyl}amino)imidazo[1,2-a]pyrimido[5,4-e]pyrimidin-5(6H)-one]"
3,< 10,"C[C@@H]1CN(c2ccc(Nc3ncc4c(=O)n(-c5c(Cl)cccc5Cl)c5nccn5c4n3)cc2F)C[C@H](C)N1 [Example 128, 6-(2,6-dichlorophenyl)-2-({4-[(3R,5S)-3,5-dimethylpiperazin-1-yl]-3-fluorophenyl}amino)imidazo[1,2-a]pyrimido[5,4-e]pyrimidin-5(6H)-one]"
4,< 10,"CC1(C)CN(Cc2cccnc2)Cc2cc(Nc3ncc4c(=O)n(-c5ccccc5Cl)c5nccn5c4n3)ccc21 [Example 131, 6-(2-chlorophenyl)-2-{[4,4-dimethyl-2-(pyridin-3-ylmethyl)-1,2,3,4-tetrahydroisoquinolin-7-yl]amino}imidazo[1,2-a]pyrimido[5,4-e]pyrimidin-5(6H)-one]"
5,< 10,"CC1(C)CN(Cc2ccsc2)Cc2cc(Nc3ncc4c(=O)n(-c5ccccc5Cl)c5nccn5c4n3)ccc21 [Example 132, 6-(2-chlorophenyl)-2-{[4,4-dimethyl-2-(thiophen-3-ylmethyl)-1,2,3,4-tetrahydroisoquinolin-7-yl]amino}imidazo[1,2-a]pyrimido[5,4-e]pyrimidin-5(6H)-one]"
6,< 10,"CN1CCc2cc(Nc3ncc4c(=O)n(-c5ccccc5Cl)c5nccn5c4n3)ccc2C1(C)C [Example 133, 6-(2-chlorophenyl)-2-[(1,1,2-trimethyl-1,2,3,4-tetrahydroisoquinolin-6-yl)amino]imidazo[1,2-a]pyrimido[5,4-e]pyrimidin-5(6H)-one]"
7,< 10,"O=c1c2cnc(Nc3ccc(C4CCCN4)cc3)nc2n2ccnc2n1-c1c(Cl)cccc1Cl (centres unmarked) [Example 134, 6-(2,6-dichlorophenyl)-2-{[4-(pyrrolidin-2-yl)phenyl]amino}imidazo[1,2-a]pyrimido[5,4-e]pyrimidin-5(6H)-one]"
8,< 10,"Cc1cc(Nc2ncc3c(=O)n(-c4c(F)cccc4Cl)c4nccn4c3n2)ccc1N1CCCNCC1 [Example 141, 6-(2-chloro-6-fluorophenyl)-2-{[4-(1,4-diazepan-1-yl)-3-methylphenyl]amino}imidazo[1,2-a]pyrimido[5,4-e]pyrimidin-5(6H)-one]"
9,< 10,"CC(C)N1Cc2cc(Nc3ncc4c(=O)n(-c5ccccc5Cl)c5nccn5c4n3)ccc2C(C)(C)C1 [Example 144, 6-(2-chlorophenyl)-2-{[4,4-dimethyl-2-(propan-2-yl)-1,2,3,4-tetrahydroisoquinolin-7-yl]amino}imidazo[1,2-a]pyrimido[5,4-e]pyrimidin-5(6H)-one]"
10,< 10,"CC1(C)CN(CCCC(F)(F)F)Cc2cc(Nc3ncc4c(=O)n(-c5ccccc5Cl)c5nccn5c4n3)ccc21 [Example 145, 6-(2-chlorophenyl)-2-{[4,4-dimethyl-2-(4,4,4-trifluorobutyl)-1,2,3,4-tetrahydroisoquinolin-7-yl]amino}imidazo[1,2-a]pyrimido[5,4-e]pyrimidin-5(6H)-one]"

# The next lines start with the compound.
row,SMILES,Ki [nM]
1,"CN(C)CCN1CCc2cc(Nc3ncc4c(=O)n(-c5c(Cl)cccc5Cl)c5nccn5c4n3)ccc21 [Example 119, 6-(2,6-dichlorophenyl)-2-({1-[2-(dimethylamino)ethyl]-2,3-dihydro-1H-indol-5-yl}amino)imidazo[1,2-a]pyrimido[5,4-e]pyrimidin-5(6H)-one]",< 10
2,"CCc1cc(Nc2ncc3c(=O)n(-c4c(Cl)cccc4Cl)c4nccn4c3n2)ccc1N1CCN(C)CC1 [Example 120, 6-(2,6-dichlorophenyl)-2-{[3-ethyl-4-(4-methylpiperazin-1-yl)phenyl]amino}imidazo[1,2-a]pyrimido[5,4-e]pyrimidin-5(6H)-one]",< 10
3,"CN1CCCN(c2ccc(Nc3ncc4c(=O)n(-c5c(Cl)cccc5Cl)c5nccn5c4n3)cc2CO)CC1 [Example 121, 6-(2,6-dichlorophenyl)-2-{[3-(hydroxymethyl)-4-(4-methyl-1,4-diazepan-1-yl)phenyl]amino}imidazo[1,2-a]pyrimido[5,4-e]pyrimidin-5(6H)-one]",< 10
4,"O=c1c2cnc(Nc3ccc4c(c3)CCNC4)nc2n2ccnc2n1-c1c(Cl)cccc1Cl [Example 122, 6-(2,6-dichlorophenyl)-2-(1,2,3,4-tetrahydroisoquinolin-6-ylamino)imidazo[1,2-a]pyrimido[5,4-e]pyrimidin-5(6H)-one]",< 10
5,"Cc1cc(Nc2ncc3c(=O)n(-c4c(Cl)cc(F)cc4Cl)c4nccn4c3n2)ccc1N1CCCN(C)CC1 [Example 124, 6-(2,6-dichloro-4-fluorophenyl)-2-{[3-methyl-4-(4-methyl-1,4-diazepan-1-yl)phenyl]amino}imidazo[1,2-a]pyrimido[5,4-e]pyrimidin-5(6H)-one]",< 10
6,"CN1Cc2cc(Nc3ncc4c(=O)n(-c5c(Cl)cc(F)cc5Cl)c5nccn5c4n3)ccc2C2(CC2)C1 [Example 125, 6-(2,6-dichloro-4-fluorophenyl)-2-[(2′-methyl-2′,3′-dihydro-1′H-spiro[cyclopropane-1,4′-isoquinolin]-7′-yl)amino]imidazo[1,2-a]pyrimido[5,4-e]pyrimidin-5(6H)-one]",< 10
7,"CN(C)C1Cc2ccc(Nc3ncc4c(=O)n(-c5c(Cl)cc(F)cc5Cl)c5nccn5c4n3)cc2C1 (centres unmarked) [Example 126, 6-(2,6-dichloro-4-fluorophenyl)-2-{[2-(dimethylamino)-2,3-dihydro-1H-inden-5-yl]amino}imidazo[1,2-a]pyrimido[5,4-e]pyrimidin-5(6H)-one]",< 10
8,"O=c1c2cnc(Nc3cc(F)c(N4CCNCC4)c(F)c3)nc2n2ccnc2n1-c1c(Cl)cccc1Cl [Example 129, 6-(2,6-dichlorophenyl)-2-{[3,5-difluoro-4-(piperazin-1-yl)phenyl]amino}imidazo[1,2-a]pyrimido[5,4-e]pyrimidin-5(6H)-one]",< 10
9,"CC1(C)CN(CC2CC2)Cc2cc(Nc3ncc4c(=O)n(-c5ccccc5Cl)c5nccn5c4n3)ccc21 [Example 130, 6-(2-chlorophenyl)-2-{[2-(cyclopropylmethyl)-4,4-dimethyl-1,2,3,4-tetrahydroisoquinolin-7-yl]amino}imidazo[1,2-a]pyrimido[5,4-e]pyrimidin-5(6H)-one]",< 10
10,"O=c1c2cnc(Nc3ccc(C4CCCCN4)cc3)nc2n2ccnc2n1-c1c(Cl)cccc1Cl (centres unmarked) [Example 135, 6-(2,6-dichlorophenyl)-2-{[4-(piperidin-2-yl)phenyl]amino}imidazo[1,2-a]pyrimido[5,4-e]pyrimidin-5(6H)-one]",< 10
11,"CN1CCN(c2ccc(Nc3ncc4c(=O)n(-c5c(Cl)cccc5Cl)c5nccn5c4n3)cc2Cl)CC1 [Example 136, 2-{[3-chloro-4-(4-methylpiperazin-1-yl)phenyl]amino}-6-(2,6-dichlorophenyl)imidazo[1,2-a]pyrimido[5,4-e]pyrimidin-5(6H)-one]",< 10
12,"COc1cc(Nc2ncc3c(=O)n(-c4c(Cl)cccc4Cl)c4nccn4c3n2)ccc1N1CCN(C(C)C)CC1 [Example 137, 6-(2,6-dichlorophenyl)-2-({3-methoxy-4-[4-(propan-2-yl)piperazin-1-yl]phenyl}amino)imidazo[1,2-a]pyrimido[5,4-e]pyrimidin-5(6H)-one]",< 10
13,"O=c1c2cnc(Nc3ccc(N4CCC(O)CC4)cc3)nc2n2ccnc2n1-c1ccccc1Cl [Example 138, 6-(2-chlorophenyl)-2-{[4-(4-hydroxypiperidin-1-yl)phenyl]amino}imidazo[1,2-a]pyrimido[5,4-e]pyrimidin-5(6H)-one]",< 10
14,"CN(C)C1Cc2ccc(Nc3ncc4c(=O)n(-c5c(F)cccc5Cl)c5nccn5c4n3)cc2C1 (centres unmarked) [Example 139, 6-(2-chloro-6-fluorophenyl)-2-{[2-(dimethylamino)-2,3-dihydro-1H-inden-5-yl]amino}imidazo[1,2-a]pyrimido[5,4-e]pyrimidin-5(6H)-one]",< 10
15,"CN1Cc2cc(Nc3ncc4c(=O)n(-c5c(F)cccc5Cl)c5nccn5c4n3)ccc2C2(CC2)C1 [Example 140, 6-(2-chloro-6-fluorophenyl)-2-[(2′-methyl-2′,3′-dihydro-1′H-spiro[cyclopropane-1,4′-isoquinolin]-7′-yl)amino]imidazo[1,2-a]pyrimido[5,4-e]pyrimidin-5(6H)-one]",< 10
16,"CC(C)n1c(=O)c2cnc(Nc3ccc4c(c3)CN(C)CC43CC3)nc2n2ccnc12 [Example 142, 2-[(2′-methyl-2′,3′-dihydro-1′H-spiro[cyclopropane-1,4′-isoquinolin]-7′-yl)amino]-6-(propan-2-yl)imidazo[1,2-a]pyrimido[5,4-e]pyrimidin-5(6H)-one]",10 to 100
17,"O=C1CN(c2ccc(Nc3ncc4c(=O)n(-c5c(Cl)cccc5Cl)c5nccn5c4n3)cc2)CCN1 [Example 143, 6-(2,6-dichlorophenyl)-2-{[4-(3-oxopiperazin-1-yl)phenyl]amino}imidazo[1,2-a]pyrimido[5,4-e]pyrimidin-5(6H)-one]",< 10
18,"CN1Cc2cc(Nc3ncc4c(=O)n(-c5ccccc5Cl)c5nccn5c4n3)ccc2C1(C)C [Example 146, 6-(2-chlorophenyl)-2-[(1,1,2-trimethyl-2,3-dihydro-1H-isoindol-5-yl)amino]imidazo[1,2-a]pyrimido[5,4-e]pyrimidin-5(6H)-one]",< 10
19,"CN1C(C)(C)c2ccc(Nc3ncc4c(=O)n(-c5ccccc5Cl)c5nccn5c4n3)cc2C1(C)C [Example 147, 6-(2-chlorophenyl)-2-[(1,1,2,3,3-pentamethyl-2,3-dihydro-1H-isoindol-5-yl)amino]imidazo[1,2-a]pyrimido[5,4-e]pyrimidin-5(6H)-one]",< 10
